Common to all, as to format: ADME, organism-based
Series [1] deals with Brain. Kind of series: Biodistribution in Sprague-Dawley rat rest of brain at 37 MBq, iv measured 30 mins post injection. Particulars: in vivo, 0.5 h.
Series [2] concerns Striatum. Kind of series: Biodistribution in Sprague-Dawley rat striatum at 37 MBq, iv measured 15 mins post injection. To be noted: in vivo, 0.25 h.
Series [3] concerns Rattus norvegicus. Briefly: Biodistribution in Sprague-Dawley rat cortex (rest) at 37 MBq, iv measured 5 mins post injection. Particulars: in vivo.
In series [4] the test system is Rattus norvegicus. Kind of series: Biodistribution in Sprague-Dawley rat cortex (rest) at 37 MBq, iv measured 15 mins post injection. Particulars: in vivo, 0.25 h.
The next series deals with Cerebellum. Kind of series: Biodistribution in Sprague-Dawley rat cerebellum at 37 MBq, iv measured 15 mins post injection. Particulars: in vivo, 0.25 h.
The test system of series [5] is Brain. Briefly: Biodistribution in Sprague-Dawley rat rest of brain at 37 MBq, iv measured 5 mins post injection. Particulars: in vivo.
Series [6] deals with Rattus norvegicus. Kind of series: Biodistribution in Sprague-Dawley rat cortex (rest) pretreated with unlabeled compound at 10 mg/kg, ip administered 30 mins before labeled compound treatment at 37 MBq, iv measured 15 mins post injection (0.36 +/- 0.02 %ID/g). Also noted: dose 10 mg/kg. Particulars: in vivo, 0.25 h.
Series [7] has as its system Striatum. Briefly: Biodistribution in Sprague-Dawley rat striatum pretreated with unlabeled compound at 0.1 mg/kg, ip administered 30 mins before labeled compound treatment at 37 MBq, iv measured 15 mins post injection (reference value: 0.13 +/- 0.22 %ID/g). Also noted: dose 0.1 mg/kg, route intravenous. To be noted: in vivo, 0.25 h.
Series [8] deals with Rattus norvegicus. Briefly: Biodistribution in Sprague-Dawley rat cortex (rest) at 37 MBq, iv measured 60 mins post injection. Particulars: in vivo, 1 h.
The next series concerns Blood. Briefly: Biodistribution in Sprague-Dawley rat blood at 37 MBq, iv measured 15 mins post injection. Particulars: in vivo, 0.25 h.
Series [9] has as its system Rattus norvegicus. Kind of series: Biodistribution in Sprague-Dawley rat cortex (front) at 37 MBq, iv measured 60 mins post injection. To be noted: in vivo, 1 h.
Series [10] has as its system Rattus norvegicus. Kind of series: Biodistribution in Sprague-Dawley rat cortex (front) pretreated with unlabeled compound at 0.1 mg/kg, ip administered 30 mins before labeled compound treatment at 37 MBq, iv measured 15 mins post infection (reference value: 0.42 +/- 0.04%ID/g). Also noted: dose 0.1 mg/kg. To be noted: in vivo, 0.25 h.
The nature of series [11]: Biodistribution in Sprague-Dawley rat cerebellum pretreated with unlabeled compound at 0.1 mg/kg, ip administered 30 mins before labeled compound treatment at 37 MBq, iv measured 15 mins post injection (reference value: 0.26 %ID/g). Also noted: dose 0.1 mg/kg. To be noted: read-out: Drug uptake.
Series [12] has as its system Rattus norvegicus. Kind of series: Biodistribution in Sprague-Dawley rat cortex (front) at 37 MBq, iv measured 15 mins post injection. Particulars: in vivo, 0.25 h.
The subject of series [13] is Rattus norvegicus. Briefly: Biodistribution in Sprague-Dawley rat cortex (front) at 37 MBq, iv measured 30 mins post injection. To be noted: in vivo, 0.5 h.

`[11CH3]Oc1ncccc1-c1cccc2c(N)c3c(nc12)CN(C1CCC1)C3=O`: the Drug uptake is listed as 0.22 % ID/g with Brain [1]; 0.21 % ID/g in the series on Striatum [2]; 0.45 % ID/g with Rattus norvegicus [3]; 0.46 % ID/g with Rattus norvegicus [4]; 0.34 % ID/g in the series on Cerebellum; 0.25 % ID/g in the series on Brain [5]. For the same molecule, the Drug uptake in the series with Rattus norvegicus [6] is recorded as 0.11 % ID/g; in the series on Striatum [7] it was 0.14 % ID/g; in the series on Rattus norvegicus [8], 0.16 % ID/g; with Blood, 0.15 % ID/g; in the series with Rattus norvegicus [9], 0.21 % ID/g; in the series with Rattus norvegicus [10], 0.36 % ID/g. Moreover, the Drug uptake in the series on Rattus norvegicus [12] was 0.53 % ID/g; in the series with Rattus norvegicus [13] it was 0.44 % ID/g. In [11], the tissue uptake at 0.25 h turned out to be 0.22 %ID/g.

These data come from ChEMBL document CHEMBL2057083, “Development of new carbon-11 labelled radiotracers for imaging GABAA- and GABAB-benzodiazepine receptors” (Bioorg Med Chem, 2012).
